From PubChem BioAssay AID1996
Values after ≈ are worked out from the molar mass of the structure shown.

Conditions: buffer; pH 7.4; 200.0 µM

solubility kinetic [µg/mL] | Compound
47.3 (≈ 147 µM) | O=C(CSc1ncccc1C(=O)O)NC1CCCCCCC1
> 51.1 | CCNC(=O)NC(=O)C(C)OC(=O)c1ccc(SC)cc1OC (stereo not given)
> 29.9 | c1ccc(CCNc2cnccn2)cc1
> 54.5 | CCOc1ccc(S(=O)(=O)NC(C)C(=O)NCc2ccccn2)cc1 (stereo not given)
> 46.3 | CC(C)N=C(NS(=O)(=O)c1cccs1)c1ccccc1
43.5 (≈ 136 µM) | O=C(NCCCNC(=O)c1ccccc1Cl)c1cnccn1
< 0.2 | O=C(NC(=O)c1ccccc1)Nc1ccc(-c2cnco2)cc1
> 37.8 | CCC1CCCCN1C(=O)c1ccc([N+](=O)[O-])o1 (stereo not given)
28.6 (≈ 67.4 µM) | CC1(C)Cc2c(c(N3CCCC3)nc3sc4c(N5CCNCC5)ncnc4c23)CO1
2.2 (≈ 4.8 µM) | Cc1cccc(C)c1NC(=O)COC(=O)/C=C/c1ccc(S(=O)(=O)N2CCOCC2)cc1
> 48.4 | O=S(=O)(NC1CCCCC1N1CCCCC1)c1ccccc1 (stereo not given)
> 33.5 | CCN(CC)C(=O)c1ccc(O)c(OC)c1
39.9 | Cc1ccccc1C(=O)OC1CCCN(C)C1.Cl (stereo not given)
> 38.1 | CC(=O)Nc1cccc(C(=O)/C=C/c2ccc[nH]2)c1
17 (≈ 59.4 µM) | Nc1sc2c(c1C(=O)NCCc1ccccc1)CCC2
3 (≈ 8.89 µM) | Cn1c(N)c(C(=O)CSc2nc(N)cc(N)n2)c(=O)n(C)c1=O
1.8 (≈ 5.33 µM) | Cc1ccc(N2CCN(S(=O)(=O)N3CCCCC3)CC2)cc1C
> 27.8 | NC(=O)CSc1ccc(F)cc1
> 50.3 | CC(=O)N[C@@H](Cc1c[nH]c2ccccc12)C(=O)NCc1ccccc1
> 47 | CC(=O)c1ccc(-c2ccc(C(=O)NCC3CCCO3)o2)cc1 (stereo not given)
7.3 (≈ 24.1 µM) | CSc1cccc(NC(=O)c2[nH]c(C)c(C(C)=O)c2C)c1

solubility kinetic [µg/mL] | Compound
1.9 (≈ 4.84 µM) | CC(C)c1ccc(CSc2ccc(S(=O)(=O)N3CCOCC3)cn2)cc1
< 0.3 | Cc1nc(-c2ccc(C(=O)Nc3cccc(F)c3)cc2)cs1
> 30.5 | Nc1c(C(=O)O)cnn1-c1ccccc1
38.8 (≈ 129 µM) | COC(=O)c1cc(S(=O)(=O)N2CCCCCC2)cn1C
1.1 (≈ 3.22 µM) | CC(C)CN(Cc1cc(=O)oc2cc3c(cc12)CCCC3)CC(C)C
> 51.2 | CN(CC(=O)O)S(=O)(=O)c1ccc2c(c1)n(C)c(=O)c(=O)n2C
> 49.5 | O=C(O)CN1C(=O)C(=O)N(Cc2ccc(C(F)(F)F)cc2)C1=O
0.9 (≈ 2.77 µM) | CCn1c(=O)c(C(=O)Nc2ncccc2O)c(O)c2ccccc21
11.5 (≈ 34 µM) | O=C(NC(Cc1ccccc1)C(=O)NC1CC1)OCc1ccccc1 (stereo not given)
52.5 (≈ 145 µM) | CSC1=C(C#N)C(c2ccncc2)C(C(=O)Nc2ccccc2)=C(C)N1 (stereo not given)
> 35.6 | O=C1CSC(=Nc2cccc([N+](=O)[O-])c2)N1
< 0.5 | CCOc1ccc2nc(Cl)sc2c1
> 66.4 | C[C@H](NS(=O)(=O)c1ccc(F)cc1)C(=O)OCC(=O)c1c(N)n(C)c(=O)n(C)c1=O
< 0.3 | Cc1nc(SCc2ccccc2)c2oc3ccccc3c2n1
1 (≈ 3.57 µM) | CC(C)(C)c1ccc(/C=C/C(=O)Nc2cccnc2)cc1
> 51.1 | CCCn1c2ccccc2c2cnn(CC(=O)N(CC)CC)c(=O)c21
> 40.2 | O=c1[nH]cnc2c1ncn2[C@@H]1O[C@H](CO)[C@@H](O)[C@H]1O
19 (≈ 62.4 µM) | O=C(OCc1nc(-c2ccccc2Cl)no1)c1ccco1
5.6 (≈ 20.7 µM) | O=[N+]([O-])c1ccc(OCc2cnc(Cl)s2)cc1
> 47.8 | O=C(c1ccc2ccccc2n1)N1CCN(c2ccccn2)CC1
> 27.9 | C=C(c1ccccc1O)n1ccnc1

solubility kinetic [µg/mL] | Compound
2.1 (≈ 6.64 µM) | CCc1c(C)nc(N2CCN(c3ccc(F)cc3)CC2)[nH]c1=O
> 37.7 | O=C(Nc1cnccn1)c1ccc(F)cc1Cl
> 43.1 | CC(=O)CC(CC(=O)NC1CCCCC1)c1ccccc1 (stereo not given)
> 46.2 | Cc1ccc[n+](CC(=O)Nc2ccc([N+](=O)[O-])cc2)c1.[Cl-]
> 47.9 | Cc1cc(NC(=O)COC(=O)c2ccccc2NCCO)no1
> 58.6 | O=C(c1ccco1)N1CCN(C(=O)c2ccccc2OCc2ccccc2)CC1
13.3 (≈ 74.2 µM) | CN(C)CCC(O)c1ccccc1 (stereo not given)
> 55.7 | COc1cccc(CNC(=O)CCCC(=O)Nc2cccc([N+](=O)[O-])c2)c1
> 46.4 | CC(C)(C)NCC(O)COc1cccc2c1CC(O)C(O)C2 (stereo not given)
< 0.2 | CC(=O)NO
> 55.6 | C=C(C)c1ccccc1NC(=O)CCN1C(=O)c2ccccc2S1(=O)=O
> 44.7 | CC(C)[C@H](NC(N)=O)C(=O)NCCc1ccc(Cl)cc1
2.5 (≈ 8.61 µM) | CC(C)(C)c1ccccc1NC(=S)NC1CCCCC1
1.7 (≈ 4.38 µM) | COc1ccc(-c2cc(C(=O)NCc3ccco3)c3ccccc3n2)cc1OC
> 56.6 | Cc1nc2ccccn2c1C(=O)NNC(=O)Nc1cccc(C(F)(F)F)c1
> 32.9 | Cc1ccc(CNC(=O)/C=C/C(=O)O)cc1
> 45.5 | C=CCNC(=O)c1cnn(-c2ccccc2)c1-c1ccccc1
6.2 (≈ 19.6 µM) | Cc1ccc(Cl)c(OCC(=O)N2CCc3ccccc3C2)c1
< 0.3 | Cc1ccc(NC(=O)CCC(=O)Nc2ccc(C)cc2)cc1
> 40.1 | CCc1cc(=O)[nH]c(SCC(=O)N2CCCC2)n1
13.5 (≈ 32.7 µM) | COc1cc(C(=O)Nc2cccc(NC(=O)c3cccs3)c2)cc(OC)c1OC

solubility kinetic [µg/mL] | Compound
10.3 (≈ 30.6 µM) | COC(=O)c1sccc1NC(=O)Nc1cc(OC)ccc1OC
3.2 (≈ 10.6 µM) | COCCNC(=O)c1cc2c(=O)[nH]c3ccccc3c2s1
> 69.7 | O=C(CNCc1ccco1)Nc1cc(S(=O)(=O)N2CCOCC2)ccc1N1CCOCC1
> 69.2 | C=CCn1c(SCC(=O)Nc2c(C)n(C)n(-c3ccccc3)c2=O)nnc1-c1cccnc1
> 44.2 | CCCN1CCC(NC(=O)C2CC=CCC2C(=O)O)CC1 (stereo not given)
44.6 (≈ 146 µM) | CC(C)[C@H](NC(=O)c1ccccc1)C(=O)NC1=NCCS1
48.1 (≈ 140 µM) | Cc1ccc(C(=O)N2CCC(C(=O)NC3CCCCCC3)CC2)cc1
40.5 (≈ 131 µM) | COc1ccc2nc(C)cc(Nc3ccc(C(=O)O)cc3)c2c1
41.2 (≈ 129 µM) | O=C(Nc1sc2c(c1C(=O)O)CCCC2)c1ccc(F)cc1
> 46.6 | CCN(CC)c1ccc(C(=O)N/N=C(\C)c2cccnc2)cc1
< 0.3 | Cc1cc(C)nc(SCc2c(F)cccc2Cl)n1
> 74 | COCC(C)n1c(SCC(=O)Nc2c(C)n(C)n(-c3ccccc3)c2=O)nc2ccccc2c1=O (stereo not given)
1.4 (≈ 4.02 µM) | O=C(Nc1ncc2c(n1)-c1ccccc1OC2)c1cccc([N+](=O)[O-])c1
6 (≈ 17.2 µM) | CN(C)C=Nc1c(Br)cc(Br)c2nonc12
1.6 (≈ 5.14 µM) | Cc1ccc(S(=O)(=O)N(C)c2ccc3ccccc3c2)cc1
1.7 (≈ 5.7 µM) | Cc1ccc(C2CCN(C(=O)Nc3ccc(F)cc3)C2)cc1 (stereo not given)
6.3 (≈ 26 µM) | O=C1NC(=O)c2cc([N+](=O)[O-])cc3cccc1c23
> 48.1 | Cc1ccc(C(=O)O)cc1NC(=O)Nc1cccc2ccccc12
24.3 (≈ 80.1 µM) | CCN(CC)CCCNCC(=O)Nc1ccc2c(c1)CCC2
8.6 (≈ 31.5 µM) | Cc1cc(NC(=O)Cn2c(=O)oc3ccccc32)no1

Compound | solubility kinetic [µg/mL]
NCCNc1ccc([N+](=O)[O-])c2cccnc12 | 28.7 (≈ 124 µM)
COc1ccccc1NC(=O)COC(=O)c1cc(C)n(C2CC2)c1C | 3.4 (≈ 9.93 µM)
